Reference: US20220175762A1, “IMMUNE MODULATORY COMPOSITIONS AND METHODS FOR TREATING CANCERS” (Birdie Biopharmaceuticals, Inc., priority 2019, published 2022)

Legend:
[1] = system: C26 colon tumor cell line; assay: In vivo tumor cell killing, C26 syngeneic tumor model, cyclophosphamide with TLRL combination therapy; set-up: dose or concentration left out as unconfirmed; details: C26 cells s.c. in BALB/c mice; cyclophosphamide i.p., TLRL (resiquimod) i.v., or both; once weekly for three times; FIG. 1B
Method: FIG. 1A-D depicts evaluation of the antitumor effects of Cyclophosphamide/TLRL combination therapy in syngeneic tumor model. FIG. 1A: Scheme of therapy protocol developed to treat C26 tumor. The treatment was initiated at d10 with tumor size 100-120 mm^3 following tumor challenges, and was administered weekly for 3 cycles starting at day 10. FIG. 1B: Antitumor effects of systemic TLRL (Resiquimod) in C26 tumor model. 4×10^5 cells were inoculated subcutaneously in Balb/c mice. After the tumor was allowed to grow for 10 days, groups of 8 mice were treated with Vehicle or with intraperitoneally administration of 1 mg of Cyclophosphamide, or with intravenously administered 1.6 g of TLRL or combination therapy at the dose shown. The compound was administered weekly for three cycles. The data are represented by the median tumor volume measurements of each group. Data for each group of 8 mice are expressed as means±SD. Statistical comparisons were performed using Student's t-Test. […]
All BALB/c mice were maintained under specific pathogen free conditions and used between 6-16 weeks of age in accordance to the animal experimental guidelines set by the Institutional Animal Care and Use Committee. […] Tumor volumes were measured along three orthogonal axes (x, y, and z) and calculated as tumor volume=(xyz)/2. […]

[2] = system: CD45^+ cell infiltration in C26 tumor; assay: Immunohistochemistry of CD45 positive cells in tumors of treated mice; format: in vivo; set-up: dose or concentration left out as unconfirmed; details: C26 tumor in Balb/c mice, tumor taken on second day of second weekly treatment, cyclophosphamide i.p., TLRL i.v., FIG. 2
Method: Histological characterization of CD45 positive cells were performed in treated mice. Tumor samples were obtained from mice treated with TLRL, cyclophosphamide or TLRL/cyclophosphamide. Histological sections were counterstained with hematoxylin and eosin (H&E).
Balb/c mice, 6-8 weeks of age, female, purchased from Vital River Beijing, C26 cells were injected s.c. in the back of anesthetized mice. Treatment was started when tumor volumes reached 100-120 mm^3, i.p. injections of cyclophosphamide or i.v. injections of 1.6 g of TLRL (resiquimod) or combination were given once weekly. On second day of second treatment, tissue specimens of the tumor from treated mice were surgically removed, fixed in 4% buffered formaldehyde for 24 h, processed into paraffin, then sectioned at 5 μm. For immunohistochemistry, tissue sections were deparaffinised followed by antigen-retrieval in Tris-EDTA buffer (0.01 M pH 9.0) at high temperature (water bath, 30 minutes at 98° C.). […] After washing with PBS three times, secondary antibody goat antibody rat HPR was applied. Standard DAB (3,3′-diaminobenzidine) kit was used for visualization and section was counterstained with H&E used according to the protocols recommended by the manufacturer.

[3] = system: IFNα inducible genes MX2, ISG15 and IRF7; assay: IFNα inducible gene expression (quantitative RT-PCR) in draining lymph nodes and spleen of treated mice; format: in vivo; details: draining LNs and spleen of C26 tumor-bearing Balb/c mice, second day of second weekly treatment, FIG. 3
Method: Expression of IFNα inducible genes in dLN and spleen of treated mouse. RNA was isolated from draining lymph nodes and spleen after second treatment with TLRL or cyclophosphamide or combination therapy and relative expression of IFNα inducible genes MX2, ISG15 and IRF7 were determined by quantitative RT-PCR. Values indicate the mRNA expression of indicated IFNα inducible genes relative to housekeeping gene Actin.
Balb/c mice, 6-8 weeks of age, female, purchased from Vital River Beijing, C26 cells were injected s.c. in the back of anesthetized mice. Treatment was started when tumor volumes reached 100-120 mm^3, i.p. injections of cyclophosphamide or i.v. injections of […] of TLRL (resiquimod) or a combination of the treatments were given once weekly. On second day of second treatment, (that is, on the eighth day) draining LNs and spleen from treated mice were dissected and RNA was extracted using TRIzol reagent. After cDNA was reversed-transcribed, the quantitative Real-Time PCR was performed and IFNα inducible gene expression data were normalized relative to geometric mean of […] housekeeping genes (Actin): […]

SMILES	effect in reducing tumor volume [1]	infiltration of CD45^+ cells in tumor microenvironment [2]	infiltration of CD45^+ cells in tumor microenvironment ([2]; listed as TLRL)	IFNα inducible gene expression (MX2, ISG15, IRF7) relative to Actin [3]	IFNα inducible gene expression (MX2, ISG15, IRF7) relative to Actin ([3]; listed as TLRL)
O=P1(N(CCCl)CCCl)NCCCO1 (stereo not drawn) [cyclophosphamide]	similar				
CCOCc1nc2c(N)nc3ccccc3c2n1CC(C)(C)O [TLRL (resiquimod), 4-amino-2-(ethoxymethyl)-a,a-di-methyl-1H-imidazo[4,5-c]quinoline-1-ethanol]	similar	significant numbers of CD45^+ cell were infiltrated	increased infiltration of activated immune cells (CD45^+)	Upregulating IFNα inducible gene clusters were observed	increased IFNα inducible gene expression
